Results reported in patent US20210147866A1, “PLANTS HAVING INCREASED TOLERANCE TO HERBICIDES” (BASF SE, priority 2017, published 2021).

Legend:
[1] = tested on: Transgenic MC24 plants expressing the Scenedesmus obliquus HPPD full length coding sequence (SEQ ID NO: 47); assay: Greenhouse post-emergence herbicide tolerance test, transgenic lines expressing full length Scenedesmus obliquus HPPD (F363I); format: in vivo, Arabidopsis thaliana
From the text: (§1) Additionally, T1 and T2 transgenic Arabidopsis plants can be tested for improved tolerance to HPPD-inhibiting benzamide herbicides in a greenhouse studies. Herbicide injury scoring is done 2-3 weeks after treatment and is rated on a scale of 0 to 100%, 0% being no injury and 100% being complete death.
(§2) The seedlings are then transfered to pots with a diameter of 10 cm and grown in soil to the nine leaf stage.
(§3) Preselected transgenic Arabidopsis plants expressing heterologous Scenedesmus obliquus HPPD mutant enzymes as defined in Seq ID No. 48 and Seq ID No. 50 are tested for tolerance against HPPD-inhibiting 4-bromo-3-(dicyclopropylcarbamoylamino)-6-fluoro-2-methyl-N(1-methyltetrazol-5-yl) benzamide herbicide in greenhouse experiments.
(§4) Transgenic lines are tested expressing heterologous Scenedesmus obliquus HPPD coding sequences under control of the constitutive parsley ubiquitin promoter and the nos terminator. One construct contains the full length Scenedesmus obliquus HPPD enzyme (Seq ID No. 47) while in a second construct the naturally occurring C-terminal insertion of 36 amino acids at position 442-477 is deleted (Seq ID No. 49). Both coding sequences carry the mutation F363I.
(§5) Broadleaf plants are more sensitive to HPPD inhibitors when applied post-emergence as compared to a pre-emergence testing. Therefore, transgenic lines are tested in a post emergence setting at about the nine leaf stage.
(§6) For the herbicide treatment of transgenic lines 4-bromo-3-(dicyclopropylcarbamoylamino)-6-fluoro-2-methyl-N-(1-methyltetrazol-5-yl) benzamide is applied at use rates of 25, 50 and 100 g/ha (see FIG. 3)
(§7) Treated plants are assessed 14 days after treatment (DAT) in the post-emergence setting.

[2] = tested on: Arabidopsis thaliana MC24; assay: Greenhouse dose response, post-emergence spray of untransformed motherline; format: in vivo; settings: 9 leaf stage, rates from 0.8 to 100 g/ha, 14 days after treatment (FIG. 2)
[3] = tested on: Transgenic MC24 plants expressing the short Scenedesmus obliquus HPPD (SEQ ID NO:50); assay: Greenhouse post-emergence herbicide tolerance test, transgenic lines expressing short Scenedesmus obliquus HPPD (F363I, amino acids 442-477 deleted); format: in vivo, Arabidopsis thaliana
From the text: as §1, §2, §3, §4, §5, §6, §7

SMILES: Cc1c(NC(=O)N(C2CC2)C2CC2)c(Br)cc(F)c1C(=O)Nc1nnnn1C [4-bromo-3-(dicyclopropylcarbamoylamino)-6-fluoro-2-methyl-N-(1-methyltetrazol-5-yl) benzamide]
- herbicide tolerance of full length sequence compared to HPPD not containing the C-terminal loop ([1]; 25-100 g/ha, 14 days after treatment): slightly better herbicide tolerance
- herbicide tolerance of transgenic lines ([1]; full length S. obliquus HPPD F363I, 25-100 g/ha, post-emergence, 9 leaf stage, 14 DAT (FIG. 4)): show herbicide tolerance
- injury of plants with S. obliquus HPPD gene carrying F363I (overall assessment) ([1]; full length construct, shown rates 25, 50 and 100 g/ha, 14 days after treatment): very little to no injury
- sensitivity of untransformed MC24 plants towards the herbicide (plant death) [2]: die even at the lowest rate
- herbicide tolerance of transgenic lines ([3]; short S. obliquus HPPD F363I, 25 to 100 g/ha, post-emergence, 9 leaf stage, 14 DAT (FIG. 3)): show herbicide tolerance
- herbicidal injury of transgenic lines ([3]; short S. obliquus HPPD F363I, 50 to 100 g/ha, post-emergence, 14 DAT (FIG. 3)): Little herbicidal injury
- injury of plants with S. obliquus HPPD gene carrying F363I (overall assessment) ([3]; short construct, shown rates 25, 50 and 100 g/ha, 14 days after treatment): very little to no injury
